Assay results as given in patent publication US4540689A, “Penicillin derivative” (Kureha Kagaku Kogyo Kabushiki Kaisha, priority 1981, dated 1985).
In brackets after ≈: the same amount, converted by molar mass.

What was measured:
Bacteroides = assay: Effect on intestinal bacterial colonies, Bacteroides count in feces; assay type: in vivo; conditions: female ICR mice, oral 500 mg/kg/day for two days, first day after administration; before administration 8.3
Description: (§1) Effect of the present compounds on the intestinal bacterial colonies was examined.
(§2) Each of the present compounds was orally administered to mice (one group consisting of five female ICR mice of 6-week-old) for two consecutive days at a dose of 500 mg/kg/day.
(§3) Before and on the first day after the administration, feces of each mouse was collected and diluted with an anerobic diluent (phosphoric buffer solution) of 100 times volume and ground. 0.1 ml of the diluted and ground feces was smeared on each culture medium shown in Table 1 and cultured aerobically or anaerobically (according to the anaerobic glove box method) under each condition shown in Table 1.
Bacteroides NBGT agar anaerobic, 37° C., five

Streptococcus spp. = assay: Effect on intestinal bacterial colonies, Streptococcus count in feces; assay type: in vivo; conditions: female ICR mice, oral 500 mg/kg/day for two days, first day after administration; before administration 6.8
Description: as §1, §2, §3
TATAC agar aerobic, 37° C., one day

Pseudomonas aeruginosa = assay: Effect on intestinal bacterial colonies, Ps. aeruginosa count in feces; assay type: in vivo; conditions: female ICR mice, oral 500 mg/kg/day for two days, first day after administration; before administration <3.0
Description: as §1, §2, §3
NAC agar aerobic, 37° C., one day

Escherichia coli = assay: Effect on intestinal bacterial colonies, E. coli count in feces; assay type: in vivo; conditions: female ICR mice, oral 500 mg/kg/day for two days, first day after administration; before administration 6.4
Description: as §1, §2, §3
DHL agar aerobic, 37° C., one day

[1] = tested on: Staphylococcus aureus IAM 1011; assay: Antibacterial activity (MIC), agar plate, Staph. aureus; assay type: cell-based; conditions: Staph. aureus IAM 1011, Mueller-Hinton agar, 37° C., 18 to 24 hours; unit assumed
Description: (§4) Antibacterial activity of the present compounds was examined as follows.
(§5) Antibacterial activity of each of the present compounds was examined against the following two bacteria according to the standard method of Japan Society of Chemotherapy:
Staphylococcus aureus IAM 1011
(§6) Each bacterial strain was inoculated into the Mueller-Hinton's culture medium and cultured at 37° C. for 18 to 48 hours. The culture medium was diluted so as to contain 1×10^6 cells of the bacteria per one ml, and the obtained medium was used as the bacterial specimen.
(§7) Agar plates were prepared by adding one part by weight of each solution of the present compounds having a predetermined concentration to nine parts by weight of Mueller-Hinton's culture medium.
(§8) A loopful amount of the bacterial specimen prepared above was smeared to make a streak of about 2 cm on each agar plate and cultured at 37° C. for 18 to 24 hours. The minimum concentration for completely inhibiting proliferation of the bacteria (referred as MIC) was determined.

[2] = tested on: Lactobacillus acidophilus; assay: Effect on intestinal bacterial colonies, L. acidophilus count in feces; assay type: in vivo; conditions: female ICR mice, oral 500 mg/kg/day for two days, first day after administration; before administration 9.0
Description: as §1, §2, §3
Lactobacillus acidophilus
LBS agar anaerobic, 37° C., five

Lactobacillus bifidus = assay: Effect on intestinal bacterial colonies, L. bifidus count in feces; assay type: in vivo; conditions: female ICR mice, oral 500 mg/kg/day for two days, first day after administration; before administration 8.4
Description: as §1, §2, §3
BS agar anaerobic, 37° C., five

[3] = tested on: Escherichia coli IFO 12734; assay: Antibacterial activity (MIC), agar plate, E. coli; assay type: cell-based; conditions: E. coli IFO 12734, Mueller-Hinton agar, 37° C., 18 to 24 hours; unit assumed
Description: as §4, §5
Escherichia coli IFO 12734 and
as §6, §7, §8

[4] = tested on: Staphylococcus aureus IAM 1011; assay: Activation by rat liver homogenate (S-9 mix), penicillin cup proliferation-inhibiting circle; assay type: cell-based; conditions: compound solution 100 μg/ml, ratio of circle diameter to conventional penicillin antibiotic; for Proliferation-inhibiting index (%), after adding S-9 mix: incubated with S-9 mix 37° C., 20 min; for Proliferation-inhibiting index (%), before adding S-9 mix: phosphoric buffer control without S-9
Description: As an enzyme for activating metabolism, a rat liver homogenate (S-9, manufactured by Oriental Yeast Company, Japan) was used in the following composition per one ml (hereinafter referred to as S-9 mix).
0.1 ml of each solution of the present compounds at a concentration of 100 μg/ml was mixed with 0.9 ml of S-9 mix or 0.9 ml of 0.1M phosphoric buffer solution (as a control) and the obtained mixture was incubated at 37° C. for 20 min with shaking.
Staphylococcus aureus IAM 1011 was inoculated into a Mueller-Hinton's culture medium and cultured at 37° C. for 18 hours. The culture medium was adjusted to a cell concentration of 1×10^8 per one ml and mixed with 50 times by volume of Mueller-Hinton's agar culture medium to obtain an agar plate.
A penicillin cup of 8 mm in diameter was placed on the agar plate prepared above, and into the cup 0.1 ml of the mixture was introduced and allowed to stand at 4° C. for 2 hours and then cultured at 37° C. for 18 hours to measure the diameter of a circle in which the proliferation of bacteria was inhibited (proliferation-inhibiting circle). In Table 4, the proliferation-inhibitingindex is shown with the ratio (%) of the diameter of the proliferation-inhibiting circle obtained by using each of the present compounds to that obtained by using the comparative compound (conventionalpenicillin antibiotic).

Row | SMILES | Logarithmic value of the number of bacterial cells per one gram of feces, Bacteroides (Bacteroides) | Logarithmic value of the number of bacterial cells per one gram of feces, Strept. spp. (Streptococcus spp.) | Logarithmic value of the number of bacterial cells per one gram of feces, Ps. aeruginosa (Pseudomonas aeruginosa) | Logarithmic value of the number of bacterial cells per one gram of feces, E. coli (Escherichia coli) | MIC, Staph. aureus [1] [µg/mL] | Logarithmic value of the number of bacterial cells per one gram of feces, L. acidophilus [2] | Logarithmic value of the number of bacterial cells per one gram of feces, L. bifidus (Lactobacillus bifidus) | MIC, E. coli [3] [µg/mL] | Proliferation-inhibiting index (%), after adding S-9 mix [4] | Proliferation-inhibiting index (%), before adding S-9 mix [4]
1 | CC(=O)Nc1ccc(C(=O)N[C@@H](C(=O)N[C@@H]2C(=O)N3[C@@H]2SC(C)(C)[C@@H]3C(=O)O)c2ccccc2)cc1 [Example 7, 7-[N-(p-acetylaminobenzoicamido)-D-phenylglycineamido]penicillanic acid] | 8.0 logarithmic value; cells per o | 6.4 logarithmic value; cells per o | < 3.0 logarithmic value; cells per o | 6.5 logarithmic value; cells per o | ≥ 12.5 | 9.0 logarithmic value; cells per o | 8.2 logarithmic value; cells per o | ≥ 100 |  | 
2 | CC1(C)S[C@@H]2[C@H](NC(=O)C(N=Cc3cc(Cl)ccc3O)c3ccccc3)C(=O)N2[C@H]1C(=O)O (some centres unmarked) [Example 5, sodium 6-(5-chlorosalicylaldehydeiminophenylglycino)penicillanate] | 8.0 logarithmic value; cells per o | 6.6 logarithmic value; cells per o | 3.3 logarithmic value; cells per o | 6.5 logarithmic value; cells per o | 0.1 | 8.8 logarithmic value; cells per o | 8.7 logarithmic value; cells per o | 6.25 | +++ (66-100) | ++ (33-66)
3 | Cc1ncc(CO)c(C=NC(C(=O)N[C@@H]2C(=O)N3[C@@H]2SC(C)(C)[C@@H]3C(=O)O)c2ccccc2)c1O (some centres unmarked) [Example 6] |  |  |  |  | ≥ 12.5 |  |  | ≥ 100 | +++ (66-100) | ++ (33-66)
4 | CC(=O)Nc1ccc(C(=O)NCC(=O)N[C@@H](C(=O)N[C@@H]2C(=O)N3[C@@H]2SC(C)(C)[C@@H]3C(=O)O)c2ccccc2)cc1 [Example 8, 7-[N-(p-acetylaminohippuric acid amido)-O-phenylglycineamido]penicillanic acid] | 8.1 logarithmic value; cells per o | 6.7 logarithmic value; cells per o | < 3.0 logarithmic value; cells per o | 6.4 logarithmic value; cells per o | ≥ 12.5 | 9.2 logarithmic value; cells per o | 8.5 logarithmic value; cells per o | ≥ 100 |  | 
5 | COc1cccc(C=NC(C(=O)N[C@@H]2C(=O)N3[C@@H]2SC(C)(C)[C@@H]3C(=O)O)c2ccccc2)c1O (some centres unmarked) [Example 2, sodium 6-(3-methoxysalicylaldehydeiminophenyl-glycino)penicillanate] | 8.3 logarithmic value; cells per o | 6.5 logarithmic value; cells per o | < 3.0 logarithmic value; cells per o | 6.4 logarithmic value; cells per o | 0.1 | 8.8 logarithmic value; cells per o | 8.3 logarithmic value; cells per o | 6.25 | +++ (66-100) | ++ (33-66)
6 | CC(=O)OC[C@H]1OC(OC(=O)[C@@H]2N3C(=O)[C@@H](NC(=O)COc4ccccc4)[C@H]3SC2(C)C)[C@H](OC(C)=O)[C@@H](OC(C)=O)[C@@H]1OC(C)=O (some centres unmarked) [Example 1] | 8.5 logarithmic value; cells per o | 6.8 logarithmic value; cells per o | < 3.0 logarithmic value; cells per o | 7.2 logarithmic value; cells per o | 0.39 (≈ 0.573 µM) | 9.1 logarithmic value; cells per o | 8.6 logarithmic value; cells per o | ≥ 200 | ± (0-1) | - (0)
7 | CCOCOC(=O)[C@@H]1N2C(=O)[C@@H](NC(=O)COc3ccccc3)[C@H]2SC1(C)C [Example 10] | 8.2 logarithmic value; cells per o | 6.6 logarithmic value; cells per o | < 3.0 logarithmic value; cells per o | 6.4 logarithmic value; cells per o | 12.5 (≈ 30.6 µM) | 9.0 logarithmic value; cells per o | 8.4 logarithmic value; cells per o | ≥ 25 |  | 
8 | CC1(C)S[C@@H]2[C@H](NC(=O)C(N=Cc3cc([N+](=O)[O-])ccc3O)c3ccccc3)C(=O)N2[C@H]1C(=O)O (some centres unmarked) [Example 3] | 8.2 logarithmic value; cells per o | 6.8 logarithmic value; cells per o | < 3.0 logarithmic value; cells per o | 6.5 logarithmic value; cells per o | 0.78 (≈ 1.56 µM) | 9.1 logarithmic value; cells per o | 8.4 logarithmic value; cells per o | 12.5 (≈ 25.1 µM) | +++ (66-100) | ++ (33-66)
